Measured values from patent publication US20260297081A1, “COMPOUNDS AND METHODS OF TREATING CANCERS” (Cullgen Inc., priority 2023, published 2026).

Assays:
MCF7 cells = test: Anti-proliferation (viability) of MCF7 cells (Table 7, FIG. 2B); format: cell-based; conditions: Homo sapiens, MCF7, MCF7 cells, 3-6 days, 10-point serial dilution; read-out: GI IC50 in MCF-7
Calu-1 cells = test: Anti-proliferation (viability) of NSCLC Calu-1 cells, 3 days (Table 7, FIG. 2B); format: cell-based; conditions: Homo sapiens, 72 h; Calu-1 cells, 3 days, 10-point serial dilution; read-out: GI IC50 in Calu-1
Outline: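 Seed cells, add compound in ten serially diluted concentrations, then incubate (Calu-1: 3 days; T47D: 6 days) before measuring viability.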

| IC50 (MCF7 cells) [nM] | IC50 (Calu-1 cells) [nM] | Structure (SMILES) |
| --- | --- | --- |
| > 100 | ≥ 50 | CC(=O)c1c(C)c2cnc(Nc3ccc(N4CCN(CC(=O)N[C@H]5CC[C@H](CNc6nc(NC(C)C)ccc6C(=O)Nc6cn(C)c(C7CC7)n6)CC5)CC4)cn3)nc2n(C2CCCC2)c1=O [CPD-275, 2-(((trans-4-(2-(4-(6-((6-acetyl-8-cyclopentyl-5-methyl-7-oxo-7,8-dihydropyrido[2,3-d]pyrimidin-2-yl)amino)pyridin-3-yl)piperazin-1-yl)acetamido)cyclohexyl)methyl)amino)-N-(2-cyclopropyl-1-methyl-1H-imidazol-4-yl)-6-(isopropylamino)nicotinamide] |
| > 100 | ≥ 50 | [2H]C([2H])([2H])Nc1ccc(C(=O)Nc2cn(C)c(C3CC3)n2)c(NC[C@H]2CC[C@H](NC(=O)CN3CCN(c4ccc(Nc5ncc6c(C)c(C(C)=O)c(=O)n(C7CCCC7)c6n5)nc4)CC3)CC2)n1 [CPD-276, 2-(((trans-4-(2-(4-(6-((6-acetyl-8-cyclopentyl-5-methyl-7-oxo-7,8-dihydropyrido[2,3-d]pyrimidin-2-yl)amino)pyridin-3-yl)piperazin-1-yl)acetamido)cyclohexyl)methyl)amino)-N-(2-cyclopropyl-1-methyl-1H-imidazol-4-yl)-6-((methyl-d3)amino)nicotinamide] |
| > 100 | ≤ 10 | CC(=O)c1c(C)c2cnc(Nc3ccc(N4CCN(CC(=O)NCC5CC(Nc6nc(NC(C)C)ccc6C(=O)Nc6cn(C)c(C7CC7)n6)C5)CC4)cn3)nc2n(C2CCCC2)c1=O (centres unmarked) [CPD-277, 2-((3-((2-(4-(6-((6-acetyl-8-cyclopentyl-5-methyl-7-oxo-7,8-dihydropyrido[2,3-d]pyrimidin-2-yl)amino)pyridin-3-yl)piperazin-1-yl)acetamido)methyl)cyclobutyl)amino)-N-(2-cyclopropyl-1-methyl-1H-imidazol-4-yl)-6-(isopropylamino)nicotinamide] |
| > 100 | 10 to 50 | [2H]C([2H])([2H])Nc1ccc(C(=O)Nc2cn(C)c(C3CC3)n2)c(NC2CC(CNC(=O)CN3CCN(c4ccc(Nc5ncc6c(C)c(C(C)=O)c(=O)n(C7CCCC7)c6n5)nc4)CC3)C2)n1 (centres unmarked) [CPD-278, 2-((3-((2-(4-(6-((6-acetyl-8-cyclopentyl-5-methyl-7-oxo-7,8-dihydropyrido[2,3-d]pyrimidin-2-yl)amino)pyridin-3-yl)piperazin-1-yl)acetamido)methyl)cyclobutyl)amino)-N-(2-cyclopropyl-1-methyl-1H-imidazol-4-yl)-6-((methyl-d3)amino)nicotinamide] |
| > 100 | 10 to 50 | CC(=O)c1c(C)c2cnc(Nc3ccc(N4CCN(CC(=O)N5CCC(Nc6nc(NC(C)C)ccc6C(=O)Nc6cn(C)c(C7CC7)n6)CC5)CC4)cn3)nc2n(C2CCCC2)c1=O [CPD-279, 2-((1-(2-(4-(6-((6-acetyl-8-cyclopentyl-5-methyl-7-oxo-7,8-dihydropyrido[2,3-d]pyrimidin-2-yl)amino)pyridin-3-yl)piperazin-1-yl)acetyl)piperidin-4-yl)amino)-N-(2-cyclopropyl-1-methyl-1H-imidazol-4-yl)-6-(isopropylamino)nicotinamide] |
| 50 to 100 | ≤ 10 | CC(=O)c1c(C)c2cnc(Nc3ccc(N4CCN(CC(=O)NC5CC(Nc6nc(NC(C)C)ccc6C(=O)Nc6ccc(N(C)C)nn6)C5)CC4)cn3)nc2n(C2CCCC2)c1=O (centres unmarked) [CPD-280, 2-((3-(2-(4-(6-((6-acetyl-8-cyclopentyl-5-methyl-7-oxo-7,8-dihydropyrido[2,3-d]pyrimidin-2-yl)amino)pyridin-3-yl)piperazin-1-yl)acetamido)cyclobutyl)amino)-N-(6-(dimethylamino)pyridazin-3-yl)-6-(isopropylamino)nicotinamide] |
| > 100 | 10 to 50 | CNc1ccc(C(=O)Nc2cc(C)on2)c(NC2CC(CNC(=O)CN3CCN(c4ccc(Nc5ncc6c(C)c(C(C)=O)c(=O)n(C7CCCC7)c6n5)nc4)CC3)C2)n1 (centres unmarked) [CPD-281, 2-((3-((2-(4-(6-((6-acetyl-8-cyclopentyl-5-methyl-7-oxo-7,8-dihydropyrido[2,3-d]pyrimidin-2-yl)amino)pyridin-3-yl)piperazin-1-yl)acetamido)methyl)cyclobutyl)amino)-6-(methylamino)-N-(5-methylisoxazol-3-yl)nicotinamide] |
| 50 to 100 | ≤ 10 | [2H]C([2H])([2H])Nc1ccc(C(=O)Nc2cc(C)on2)c(NC2CC(CNC(=O)CN3CCN(c4ccc(Nc5ncc6c(C)c(C(C)=O)c(=O)n(C7CCCC7)c6n5)nc4)CC3)C2)n1 (centres unmarked) [CPD-283, 2-((3-((2-(4-(6-((6-acetyl-8-cyclopentyl-5-methyl-7-oxo-7,8-dihydropyrido[2,3-d]pyrimidin-2-yl)amino)pyridin-3-yl)piperazin-1-yl)acetamido)methyl)cyclobutyl)amino)-6-((methyl-d3)amino)-N-(5-methylisoxazol-3-yl)nicotinamide] |
| > 100 | ≤ 10 | CC(=O)c1c(C)c2cnc(Nc3ccc(N4CCN(CC(=O)NC5CCC(Nc6nc(NC(C)C)ccc6C(=O)Nc6cn(C)c(C7CC7)n6)C5)CC4)cn3)nc2n(C2CCCC2)c1=O (centres unmarked) [CPD-284, 2-((3-(2-(4-(6-((6-acetyl-8-cyclopentyl-5-methyl-7-oxo-7,8-dihydropyrido[2,3-d]pyrimidin-2-yl)amino)pyridin-3-yl)piperazin-1-yl)acetamido)cyclopentyl)amino)-N-(2-cyclopropyl-1-methyl-1H-imidazol-4-yl)-6-(isopropylamino)nicotinamide] |
| > 100 | 10 to 50 | [2H]C([2H])([2H])Nc1ccc(C(=O)Nc2cn(C)c(C3CC3)n2)c(NC2CCC(NC(=O)CN3CCN(c4ccc(Nc5ncc6c(C)c(C(C)=O)c(=O)n(C7CCCC7)c6n5)nc4)CC3)C2)n1 (centres unmarked) [CPD-285, 2-((3-(2-(4-(6-((6-acetyl-8-cyclopentyl-5-methyl-7-oxo-7,8-dihydropyrido[2,3-d]pyrimidin-2-yl)amino)pyridin-3-yl)piperazin-1-yl)acetamido)cyclopentyl)amino)-N-(2-cyclopropyl-1-methyl-1H-imidazol-4-yl)-6-((methyl-d3)amino)nicotinamide] |
| > 100 | ≥ 50 | CC(=O)c1c(C)c2cnc(Nc3ccc(N4CCN(CC(=O)NC5CC6(C5)CC(Nc5cc(C)ccc5C(=O)Nc5cc(C)on5)C6)CC4)cn3)nc2n(C2CCCC2)c1=O (centres unmarked) [CPD-286, 2-((6-(2-(4-(6-((6-acetyl-8-cyclopentyl-5-methyl-7-oxo-7,8-dihydropyrido[2,3-d]pyrimidin-2-yl)amino)pyridin-3-yl)piperazin-1-yl)acetamido)spiro[3.3]heptan-2-yl)amino)-4-methyl-N-(5-methylisoxazol-3-yl)benzamide] |
| > 100 | ≥ 50 | [2H]C([2H])([2H])Nc1ccc(C(=O)Nc2cn(C)c(C3CC3)n2)c(NC2CC(NC(=O)N3CCN(c4ccc(Nc5ncc6c(C)c(C(C)=O)c(=O)n(C7CCCC7)c6n5)nc4)CC3)C2)n1 (centres unmarked) [CPD-287, 4-(6-((6-acetyl-8-cyclopentyl-5-methyl-7-oxo-7,8-dihydropyrido[2,3-d]pyrimidin-2-yl)amino)pyridin-3-yl)-N-(3-((3-((2-cyclopropyl-1-methyl-1H-imidazol-4-yl)carbamoyl)-6-((methyl-d3)amino)pyridin-2-yl)amino)cyclobutyl)piperazine-1-carboxamide] |
| > 100 | ≥ 50 | CC(=O)c1c(C)c2cnc(Nc3ccc(N4CCN(CC(=O)NC5CC(Nc6nc(NC(C)C)ccc6C(=O)Nc6cn(C)c(C7CC7)n6)C5)CC4)cn3)nc2n(C2CCCC2)c1=O (centres unmarked) [CPD-288, 2-((3-(2-(4-(6-((6-acetyl-8-cyclopentyl-5-methyl-7-oxo-7,8-dihydropyrido[2,3-d]pyrimidin-2-yl)amino)pyridin-3-yl)piperazin-1-yl)acetamido)cyclobutyl)amino)-N-(2-cyclopropyl-1-methyl-1H-imidazol-4-yl)-6-(isopropylamino)nicotinamide] |
| > 100 | ≥ 50 | CC(=O)c1c(C)c2cnc(Nc3ccc(N4CCN(C(=O)NC5CC(Nc6nc(NC(C)C)ccc6C(=O)Nc6cn(C)c(C7CC7)n6)C5)CC4)cn3)nc2n(C2CCCC2)c1=O (centres unmarked) [CPD-289, 4-(6-((6-acetyl-8-cyclopentyl-5-methyl-7-oxo-7,8-dihydropyrido[2,3-d]pyrimidin-2-yl)amino)pyridin-3-yl)-N-(3-((3-((2-cyclopropyl-1-methyl-1H-imidazol-4-yl)carbamoyl)-6-(isopropylamino)pyridin-2-yl)amino)cyclobutyl)piperazine-1-carboxamide] |
| > 100 | 10 to 50 | CC(=O)c1c(C)c2cnc(Nc3ccc(N4CC5(CN(CCC(=O)N6CCC(Nc7nc(NC(C)C)ccc7C(=O)Nc7ccc(N(C)C)nn7)CC6)C5)C4)cn3)nc2n(C2CCCC2)c1=O [CPD-454, 2-((1-(3-(6-(6-((6-acetyl-8-cyclopentyl-5-methyl-7-oxo-7,8-dihydropyrido[2,3-d]pyrimidin-2-yl)amino)pyridin-3-yl)-2,6-diazaspiro[3.3]heptan-2-yl)propanoyl)piperidin-4-yl)amino)-N-(6-(dimethylamino)pyridazin-3-yl)-6-(isopropylamino)nicotinamide] |
| < 50 | ≤ 10 | CC(=O)c1c(C)c2cnc(Nc3ccc(N4CC5(CN(CCC(=O)N6CC7(CC(Nc8nc(NC(C)C)ccc8C(=O)Nc8ccc(N(C)C)nn8)C7)C6)C5)C4)cn3)nc2n(C2CCCC2)c1=O [CPD-455, 2-((2-(3-(6-(6-((6-acetyl-8-cyclopentyl-5-methyl-7-oxo-7,8-dihydropyrido[2,3-d]pyrimidin-2-yl)amino)pyridin-3-yl)-2,6-diazaspiro[3.3]heptan-2-yl)propanoyl)-2-azaspiro[3.3]heptan-6-yl)amino)-N-(6-(dimethylamino)pyridazin-3-yl)-6-(isopropylamino)nicotinamide] |
